# Assay results: patent publication US7405204B2, “Nucleoside compounds for treating viral infections” (Genelabs Technologies, Inc., priority 2005, dated 2008)
# How the values were obtained:
# [1] = system: HCV replicon I389luc-ubi-neo/NS3-3′/ET in ET (Huh-lucubineo-ET) cell line; test: Replicon assay (luciferase reporter); assay type: cell-based; conditions: Hepatitis C virus, read-out: % inhibition of replication (luciferase)
# Procedure: A cell line, ET (Huh-lucubineo-ET) was used for screening of compounds for inhibiting HCV RNA dependent RNA polymerase. The ET cell line was stably transfected with RNA transcripts harboring a I389luc-ubi-neo/NS3-3′/ET; replicon with firefly luciferase-ubiquitin-neomycin phosphotransferase fusion protein and EMCV-IRES driven NS3-5B polyprotein containing the cell culture adaptive mutations (E1202G; T1280I; K1846T) (Krieger at al, 2001 and unpublished). The ET cells were grown in DMEM, supplemented with 10% fetal calf serum, 2 mM Glutamine, Penicillin (100 IU/mL)/Streptomycin (100 μg/mL), 1× nonessential amino acids, and 250 μg/mL G418 (“Geneticin”). They were all available through Life Technologies (Bethesda, Md.). The cells were plated at 0.5-1.0×10^4 cells/well in the 96 well plates and incubated for 24 hrs before adding test compound. […] Luciferase activity was measured 48-72 hours later by adding a lysis buffer and the substrate (Catalog number Glo-lysis buffer E2661 and Bright-Glo luciferase system E2620 Promega, Madison, Wis.). […] Under the same condition, cytotoxicity of the compounds was determined using cell proliferation reagent, WST-1 (Roche, Germany). […] IC50 and TC50 values were calculated by fitting % inhibition at each concentration to the following equation: % inhibition=100%/[(IC50/[I])^b+1] where b is Hill's coefficient. […]
# [2] = biological target: T1, HCV-NS5b (Hepatitis C virus genotype 1b, UniProt Q9WMX2); test: HCV-NS5b enzyme assay; assay type: biochemical; conditions: recombinant NS5b, 37° C., 2 hours, read-out: % inhibition of polymerase activity ([3H]-UTP incorporation)
# T1 construct: The cloned fragment was missing the C terminus 21 amino acid residues; (His)6 (C); made in house; host or cells: XL-1 cells (E. coli)
# Excerpt: The coding sequence of NS5b protein was cloned by PCR from pFKI389luc/NS3-3′/ET as described by Lohmann, V., et al. (1999) Science 285, 110-113 using the primers shown on page 266 of WO 2005/012288.
# The cloned fragment was missing the C terminus 21 amino acid residues. The cloned fragment was inserted into an IPTG-inducible expression plasmid that provides an epitope tag (His)6 at the carboxy terminus of the protein.
# The recombinant enzyme was expressed in XL-1 cells and after induction of expression, the protein was purified using affinity chromatography on a nickel-NTA column. Storage condition was 10 mM Tris-HCl pH 7.5, 50 mM NaCl, 0.1 mM EDTA, 1 mM DTT, 20% glycerol at −20° C.
# The polymerase activity was assayed by measuring incorporation of radiolabeled UTP into a RNA product using a biotinylated, heteropolymeric template, which includes a portion of the HCV genome. Typically, the assay mixture (34 μL) contains 10 mM Tris-HCl (pH 7.5), 5 mM MgCl2, 0.2 mM EDTA, 10 mM KCl, 1 unit/μL RNAsin, 1 mM DTT, 10 μM each of NTP, including [^3H]-UTP, and 10 ng/μL biotinylated heteropolymeric template. […] Incorporation of radioactivity was determined by scintillation counting (cpm). The % Inhibition at a particular concentration was determined using the following equation, % Inhibition=100−[100*(cpm with inhibitor−bg)/(cpm with no inhibitor−bg)] where bg was the background with no enzyme.
smiles,measurement,setting,value
"C#Cc1cn(C2OC(CO)[C@@H](O)[C@@]2(C)F)c2ncnc(N)c12 (stereo in doubt) [4-Amino-5-ethynyl-7-(2-deoxy-2-fluoro-2-C-methyl-β-D-ribofuanosyl)-7H-pyrrolo[2,3-d]pyrimidine]",inhibition at 50 µM,[1],60%
"C#Cc1cn(C2OC(COP(=O)(O)OP(=O)(O)OP(=O)(O)O)[C@@H](O)[C@@]2(C)F)c2ncnc(N)c12 (stereo partly drawn) [[4-Amino-5-ethynyl-7-(2-deoxy-2-fluoro-2-C-methyl-β-D-ribofuanosyl)-7H-pyrrolo[2,3-d]pyrimidine]5′-triphosphate]",inhibition at 6 µM,[2],95%
"C#Cc1cn(C2OC(COP(=O)(NC(C)C(=O)OC)Oc3ccccc3)[C@@H](O)[C@@]2(C)F)c2ncnc(N)c12 (stereo partly drawn) [[4-Amino-5-ethynyl-7-(2-deoxy-2-fluoro-2-C-methyl-β-D-ribofuanosyl)-7H-pyrrolo[2,3-d]pyrimidine]5′-[Rp/Sp-Methoxyalaninylphenylphosphate]]",inhibition at 12.5 µM,[1],11%
